Several values for one entry are separate records, joined by “and”; a condition that tells them apart may be missing. Identical values can stand only once.
Key:
[1] = Photostationary state composition by LC-MS at isosbestic point; conditions: for PSS cis (% cis) / PSS trans (% trans): DMSO 10 mM, LC-MS at isosbestic point; for PSS cis (% cis): after 360 ± 20 nm (12d: 520 ± 12 nm); for PSS trans (% trans): after 434 ± 9 nm from PSS cis
[2] = UV/vis absorption spectra before and after illumination; type: physicochemical; conditions: 25 μM in HBSS buffer containing 1% DMSO; for λmax (nm) PSS cis: n−π* transition, approximated from PSS cis composition; for λmax (nm) trans: π–π* transition of trans isomer
[3] = Photostationary state composition by 1H NMR; type: physicochemical
Source text: However, it has been computationally studied by Konrad et al. who calculated the n−π* band to be 444.5 nm for the cis isomer of the parent compound in the gas phase. […] The difference between calculated and experimental value could conceivably be the result of the buffer solvent not having been included in the calculations and/or the suboptimal trans to cis conversion at PSS cis (PSS cis = 66.3%). […] The PSS cis curve is slightly […], potentially enabling trans–cis isomerization at longer wavelengths. […] However, not unexpectedly given the low absorption at 560 nm, the illumination time required is much longer (hours versus 20 min with 360 nm illumination). Such longer illumination times would only be acceptable if the pharmacological differences between the isomers were much more pronounced, not requiring full conversions to PSS cis . […] The PSS cis and PSS trans values by LC–MS analysis (Figures B and S5) at the isosbestic point (376 nm) are 66.3% and 72.5%, respectively. These are similar to the 62.4% and 78.7% values obtained from ^1H NMR analysis, in which the well-resolved signal of the benzylic CH group allowed quantification of the PSS values (Figures C and S7).

[4] = Reversible isomerization cycles under alternating illumination (photobleaching resistance); conditions: 25 μM in HBSS buffer containing 1% DMSO; 365 ± 11 nm / 440 ± 25 nm
β2-AR = β2-AR (Homo sapiens, UniProt P07550); test: FRET-based EPAC cAMP assay, ligand stimulation (agonist mode); type: cell-based
β2-AR, sequence (P07550 whole entry): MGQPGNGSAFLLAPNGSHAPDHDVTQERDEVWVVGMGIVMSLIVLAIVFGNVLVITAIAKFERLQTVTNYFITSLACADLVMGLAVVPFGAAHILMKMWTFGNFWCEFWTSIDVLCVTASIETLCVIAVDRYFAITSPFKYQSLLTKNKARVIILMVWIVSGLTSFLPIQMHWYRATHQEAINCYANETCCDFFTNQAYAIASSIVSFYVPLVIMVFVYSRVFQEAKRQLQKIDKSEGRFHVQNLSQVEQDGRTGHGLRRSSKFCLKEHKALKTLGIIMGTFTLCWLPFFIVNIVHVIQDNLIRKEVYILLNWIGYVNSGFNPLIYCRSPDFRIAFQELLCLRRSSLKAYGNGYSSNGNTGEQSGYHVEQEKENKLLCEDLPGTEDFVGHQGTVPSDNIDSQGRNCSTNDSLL

human β2-AR = molecular target: T1, human β2-AR (Homo sapiens, UniProt P07550, E27Q/G16R); test: [3H]DHA competition radioligand binding on HEK293T membranes
T1 construct: Human β2AR (GenBank: NP_000015.1) in pcDNA3.1+ expression plasmid; expressed in transfected cells; host or cells: HEK293T cells, transient transfection with PEI; membranes prepared
T1 sequence (P07550 whole entry G16R/E27Q): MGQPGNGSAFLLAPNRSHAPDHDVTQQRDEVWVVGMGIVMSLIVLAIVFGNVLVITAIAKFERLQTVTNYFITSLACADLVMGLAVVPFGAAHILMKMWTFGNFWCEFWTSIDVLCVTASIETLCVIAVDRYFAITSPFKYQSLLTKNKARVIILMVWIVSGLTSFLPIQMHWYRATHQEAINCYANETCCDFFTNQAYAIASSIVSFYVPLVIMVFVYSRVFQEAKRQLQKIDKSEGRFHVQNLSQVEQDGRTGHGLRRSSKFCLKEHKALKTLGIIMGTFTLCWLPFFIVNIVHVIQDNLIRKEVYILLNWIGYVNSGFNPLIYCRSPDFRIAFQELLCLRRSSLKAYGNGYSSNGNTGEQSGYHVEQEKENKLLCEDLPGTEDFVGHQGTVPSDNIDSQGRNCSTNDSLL

Row | PSS cis (% cis) [1] | PSS trans (% trans) [1] | λmax (nm) PSS cis [2] [nm] | λmax (nm) trans [2] [nm] | PSS cis value from 1H NMR analysis ([3]; 10 mM in DMSO-d6, 360 ± 20 nm) [%] | PSS trans value from 1H NMR analysis ([3]; 10 mM in DMSO-d6, 434 ± 9 nm after PSS cis) [%] | PSS cis value with 560 nm light ([1]; 560 nm illumination, LC-MS) [%] | resistance to photobleaching, dynamic isomerization cycles [4] | Compound | pEC50 trans (β2-AR) | α trans, intrinsic activity Emax (ligand)/Emax (isoprenaline) (β2-AR) | Ki (human β2-AR) [nM]
1 | 94.6 ± 0.5% | 71.8 ± 0.2% | 425 | 323 | – | – | – | – | CC(C)(C)NCC(O)c1ccc(/N=N/c2ccccc2)cc1 (stereo not drawn) [Compound 12a, (E)-2-(tert-Butylamino)-1-(4-(phenyldiazenyl)-phenyl)-ethan-1-ol] | – | – | –
2 | 66.3% and 66.3 ± 0.9% | 72.5% and 72.5 ± 0.1% | 417 | 306 | 62.4 | 78.7 | 74.9 | at least 10 cycles | CC(C)(C)NCC(O)c1cc(Cl)c(/N=N/c2ccccc2)c(Cl)c1 (stereo not drawn) [Compound 12b, (E)-2-(tert-Butylamino)-1-(3,5-dichloro-4-(phenyldiazenyl)phenyl)-ethan-1-ol] | – | – | –
3 | 97.6 ± 0.1% | 65.5 ± 0.2% | 428 | 328 | – | – | – | – | CC(C)(C)NCC(O)c1ccc(/N=N/c2ccccc2)c(Cl)c1 (stereo not drawn) [Compound 12c, (E)-2-(tert-Butylamino)-1-(3-chloro-4-(phenyldiazenyl)phenyl)-ethan-1-ol] | – | – | –
4 | 38.5 ± 0.5% | 94.1 ± 0.3% | 441 | 293 | – | – | – | – | CC(C)(C)NCC(O)c1cc(Cl)c(/N=N/c2c(Cl)cccc2Cl)c(Cl)c1 (stereo not drawn) [Compound 12d, (E)-2-(tert-Butylamino)-1-(3,5-dichloro-4-((2,6-dichlorophenyl)-diazenyl)-phenyl)-ethan-1-ol] | – | – | –
5 | 88.7 ± 0.8% | 82.0 ± 0.4% | 426 | 331 | – | – | – | – | CC(C)(C)NCC(O)c1cc(Cl)c(/N=N/c2ccccc2)c(C#N)c1 (stereo not drawn) [Compound 12e, (E)-5-(2-(tert-Butylamino)-1-hydroxyethyl)-3-chloro-2-(phenyldiazenyl)-benzonitrile] | – | – | –
6 | – | – | – | – | – | – | – | – | CC(C)(C)NCC(O)c1cc(Cl)c(N)c(C#N)c1 (stereo not drawn) [Compound 18, 2-Amino-5-(2-(tert-butylamino)-1-hydroxyethyl)-3-chlorobenzonitrile] | 9.0 ± 0.0 | 0.8 ± 0.0 | 20

From article PMC12225454, “Photo-clenbuterol: Optical Control of β2‑Adrenergic Receptor Signaling by Photoswitchable Ligand Efficacy” (Journal of Medicinal Chemistry, 2025)
